Reference: patent US4719235A, “Methods and compositions for treating viral infection” (Kern; Gerald N., priority 1985, dated 1988)
Like-named read-outs stand apart in the source and are kept apart here.

What was measured:
HSV-2 = assay: Titration of HSV-2 after contact with serum-free docusate sodium solutions (plaque assay on MA-104 cells); assay type: cell-based, Herpes Simplex Type 2
Rotavirus strain SA-11 = assay: Titration of Rotavirus strain SA-11 after contact with docusate sodium solutions; assay type: cell-based; conditions: for plaque forming units: 0.2 mg/ml; for pfu/ml: 1 mg/ml
Coxsackievirus B-5 [1] = assay: Titration of Coxsackievirus B-5 after contact with docusate sodium solutions; assay type: cell-based; conditions: 0.2 mg/ml
[2] = tested on: Respiratory syncytial virus (RSV); assay: Inactivation of Respiratory Syncytial Virus (CPE on HeLa cells); assay type: cell-based
Influenza A virus [3] = assay: Inactivation of Influenza A virus (CPE on MDCK cells); assay type: cell-based
Adenovirus = assay: Titration of Adenovirus after contact with docusate sodium solutions (HeLa cells); assay type: cell-based; conditions: 0.2 mg/ml
[4] = Cytotoxicity in solutions free of serum, MA-104; assay type: cell-based, monkey; set-up: key to MA-104 (toxicity): 0: Cells had normal morphology; 4+: >90% of cells showed CTE; conditions: monkey, ma-104 cells, 0.2 mg/ml, 37° C., read-out: MA-104 (toxicity)
Procedure: (§1) The cell lines used to evaluate cytotoxicity of docusate sodium were MA-104 derived from monkey kidneys, HeLa derived from human uterine carcinoma and primary fibroblasts from human foreskin. The cells were grown to confluency in 60×15 mm dishes. The cell monolayers were washed free of growth medium and 5 ml of serum-less growth medium containing docusate sodium at various concentrations was added. The curtures were incubated 24 hours at 37° C. and the cells then examined microscopically for cytotoxic effects (CTE). Controls were done in the same manner except that they were not exposed to docusate sodium.

MA-104 = assay: Cytotoxicity in solutions free of serum, MA-104; assay type: cell-based, monkey; set-up: key to MA-104 (toxicity): 0: Cells had normal morphology; 4+: >90% of cells showed CTE; conditions: 24 hours, 37° C.
Procedure: as §1

[5] = Cytotoxicity in solutions free of serum, HeLa; assay type: cell-based, human; set-up: key to HeLa (toxicity): 0: Cells had normal morphology; 4+: >90% of cells showed CTE; conditions: human, hela cells, 0.2 mg/ml, 37° C., read-out: HeLa (toxicity)
Procedure: as §1

HeLa [6] = assay: Cytotoxicity in solutions free of serum, HeLa; assay type: cell-based, human; set-up: key to HeLa (toxicity): 0: Cells had normal morphology; 4+: >90% of cells showed CTE; conditions: 24 hours, 37° C.
Procedure: as §1

[7] = Cytotoxicity in solutions free of serum, foreskin fibroblasts; assay type: cell-based, human; set-up: key to Foreskin (toxicity): 0: Cells had normal morphology; 4+: >90% of cells showed CTE; conditions: human, foreskin fibroblasts, 0.2 mg/ml, 37° C., read-out: Foreskin (toxicity)
Procedure: as §1

[8] = tested on: primary fibroblasts from human foreskin; assay: as above; assay type: cell-based; set-up: key to Foreskin (toxicity): 0: Cells had normal morphology; 4+: >90% of cells showed CTE; conditions: 24 hours, 37° C.
Procedure: as §1

[9] = Cytotoxicity in solutions free of serum, selected cell lines (overall conclusion); assay type: cell-based; conditions: serum-free medium, read-out: concentration toxic to the cells
Procedure: as §1

[10] = Cytotoxicity in solutions containing serum, HeLa; assay type: cell-based, human; set-up: key to HeLa (Cytotoxic effect): 0: Cells have normal morphology; 4+: >90% of cells showed CTE.; ±c: less than 10% of cells showed CTE; conditions: human, hela cells, 2% fetal calf serum, 37° C., read-out: HeLa (Cytotoxic effect)
Procedure: (§2) The cells were grown to confluency in 60×15 mm dishes. The cell monolayers were washed free of growth medium and 5 ml of serum-less growth medium containing docusate sodium at various concentrations was added. The curtures were incubated 24 hours at 37° C. and the cells then examined microscopically for cytotoxic effects (CTE). Controls were done in the same manner except that they were not exposed to docusate sodium.
(§3) The same procedure that was used for Example 17 was used for this Example except that the medium used for growing the cells contained 2% by volume fetal calf serum.

HeLa [11] = assay: Cytotoxicity in solutions containing serum, HeLa; assay type: cell-based, human; set-up: key to HeLa (Cytotoxic effect): 0: Cells have normal morphology; 4+: >90% of cells showed CTE.; ±c: less than 10% of cells showed CTE; conditions: 0.02 mg/ml, 2% fetal calf serum, 24 hours, 37° C.
Procedure: as §2, §3

Rotavirus = assay: microbe, parasite or virus in culture; assay type: cell-based; conditions: MA104, 0.25 h, pretreatment 15 minutes, read-out: % decrease in pfu
Coxsackievirus B-5 [12] = assay: Pretreatment of MA-104 cells prior to exposure to Coxsackievirus B-5; assay type: cell-based
[13] = tested on: Respiratory Syncytial Virus; assay: Pretreatment of HeLa cells prior to exposure to Respiratory Syncytial Virus; assay type: cell-based
Procedure: The same procedure was used for this example as was used for Example 21 except that HeLa cells were substituted for MA-104 cells, the docusate sodium solution contained 0.1 mg/ml of docusate sodium, and Respiratory Syncytial Virus was substantial for Rotavirus. Three experiments were run.
(§4) Virus infectivity was determined by cytopathic effects (CPE).

HSV-II = assay: Duration of effect of pretreatment of MA-104 cells prior to exposure to HSV-II; assay type: cell-based, Herpes Simplex Type 2; conditions: 0.02 mg/ml; for inhibition at 20 µg/mL: Human alphaherpesvirus 2, MA104, read-out: % Reduction In Infectivity
Procedure: MA-104 cell monolayers were washed twice with Earle's basal salt solution (EBSS) and a 0.02 mg/ml solution of docusate sodium was added to each culture dish. The culture dishes were incubated at 37° C. for one hour and the docusate sodium solutions poured off. The monolayers were then washed twice with EBSS and at appropriate time intervals infected with HSV-II. After the addition of overlay agar, the cultures were incubated at 37° C. for 3 days, stained with crystal voilet, and the plaques counted. Control cultures were treated in a similar manner except for exposure to docusate sodium.

herpes virus = assay: Recovery of herpes virus from a contaminated surface (glass slides; plaques on MA-104 cells); assay type: cell-based
[14] = tested on: selected cell lines (MA-104, HeLa, Foreskin)
[15] = cited from earlier work
Influenza A virus [16] = assay: Pretreatment of MDCK cells prior to exposure to Influenza A virus; conditions: 0.1 mg/ml
Procedure: as §4
The same procedure was used for this example as was used for Example 24 except that MDCK cells were substituted for HeLa cells and Influenza A virus was substituted for Respiratory Syncytial Virus. Two experiments were run.

CCCCC(CC)COC(=O)CC(C(=O)OCC(CC)CCCC)S(=O)(=O)O (stereo not drawn) [docusate sodium, 1,4-bis(2-ethylhexyl)sodium sulfosuccinate]
killing at 10 µg/mL (HSV-2; Human alphaherpesvirus 2, MA104, 0.25 h, 0.01 mg/ml, 15 min, 37° C., read-out: % Inactivation of HSV-2): 19% | killing at 20 µg/mL (HSV-2; Human alphaherpesvirus 2, MA104, 0.25 h, 0.02 mg/ml, 15 min, 37° C., read-out: % Inactivation of HSV-2): 70% | killing at 30 µg/mL (HSV-2; Human alphaherpesvirus 2, MA104, 0.25 h, 0.03 mg/ml, 15 min, 37° C., read-out: % Inactivation of HSV-2): 97% | killing at 40 µg/mL (HSV-2; Human alphaherpesvirus 2, MA104, 0.25 h, 0.04 mg/ml, 15 min, 37° C., read-out: % Inactivation of HSV-2): 100% | killing at 50 µg/mL (HSV-2; Human alphaherpesvirus 2, MA104, 0.25 h, 0.05 mg/ml, 15 min, 37° C., read-out: % Inactivation of HSV-2): 100% | killing at 100 µg/mL (HSV-2; Human alphaherpesvirus 2, MA104, 0.25 h, 0.1 mg/ml, 15 min, 37° C., read-out: % Inactivation of HSV-2): 100% | killing at 200 µg/mL (HSV-2; Human alphaherpesvirus 2, MA104, 0.25 h, 0.2 mg/ml, 15 min, 37° C., read-out: % Inactivation of HSV-2): 100% | inactivation of HSV-2 (conclusion) (HSV-2; concentrations as low as 0.02 mg/ml): effectively inactivates HSV-2 | plaque forming units (Rotavirus strain SA-11; exposure time 0 minutes (control 17,000)): 16,000 pfu/ml | plaque forming units (Rotavirus strain SA-11; exposure time 15 minutes): 19,000 pfu/ml | plaque forming units (Rotavirus strain SA-11; exposure time 60 minutes (control 13,000)): 27,000 pfu/ml | pfu/ml (Rotavirus strain SA-11; exposure time 0 minutes (control 46,500)): 45,000 pfu/ml | pfu/ml (Rotavirus strain SA-11; exposure time 60 minutes (control 49,000)): 51,000 pfu/ml | inactivation of Rotavirus SA-11 (conclusion) (Rotavirus strain SA-11; 0.2 and 1 mg/ml): did not inactivate Rotavirus SA-11 | inactivation of Coxsackievirus B-5 (conclusion) (Coxsackievirus B-5 [1]): did not inactivate Coxsackievirus B-5 | pfu/ml (Coxsackievirus B-5 [1]; exposure time 0 minutes (control 30,000)): 12,500 pfu/ml | pfu/ml (Coxsackievirus B-5 [1]; exposure time 15 minutes): 23,000 pfu/ml | pfu/ml (Coxsackievirus B-5 [1]; exposure time 60 minutes (control 25,500)): 30,000 pfu/ml | Presence of CPE [2]: - | inactivation of RSV (conclusion) [2]: RSV was inactivated | Presence of CPE (Influenza A virus [3]): - | inactivation of Influenza A virus (conclusion) (Influenza A virus [3]): readily inactivated | effect on Adenovirus replication (conclusion) (Adenovirus; contact time 60 minutes): did not have a significant effect on Adenovirus replication | pfu/ml (Adenovirus; exposure time 60 minutes (control 180,000)): 150,000 pfu/ml | killing at 200 µg/mL (Adenovirus; unidentified adenovirus, HeLa, 1 h, exposure time 60 minutes, read-out: % Inactivation): 17% | cytotoxicity at 24 h [4]: > 90% | MA-104 (toxicity) (MA-104; 0.01 mg/ml): 0 | MA-104 (toxicity) (MA-104; 0.05 mg/ml): 4+ (>90% of cells showed CTE.) | MA-104 (toxicity) (MA-104; 0.1 mg/ml): 4+ (>90% of cells showed CTE.) | cytotoxicity at 24 h [5]: > 90% | HeLa (toxicity) (HeLa [6]; 0.01 mg/ml): 0 | HeLa (toxicity) (HeLa [6]; 0.05 mg/ml): 4+ (>90% of cells showed CTE.) | HeLa (toxicity) (HeLa [6]; 0.1 mg/ml): 4+ (>90% of cells showed CTE.) | cytotoxicity at 24 h [7]: > 90% | Foreskin (toxicity) ([8]; 0.01 mg/ml): 0 | Foreskin (toxicity) ([8]; 0.05 mg/ml): 4+ (>90% of cells showed CTE.) | Foreskin (toxicity) ([8]; 0.1 mg/ml): 4+ (>90% of cells showed CTE.) | MCC at 24 h [9]: 10 to 50 µg/mL | cytotoxicity at 24 h ([10]; 0.03 mg/ml): < 10% | cytotoxicity at 24 h ([10]; 0.04 mg/ml): > 90% | HeLa (Cytotoxic effect) (HeLa [11]): 0 | inhibition at 40 µg/mL (Rotavirus; 0.04 mg/ml): 10% | inhibition at 50 µg/mL (Rotavirus; 0.05 mg/ml): 70% | effect on plaque formation (infectivity) (conclusion) (Coxsackievirus B-5 [12]; 0.02 mg/ml, pretreatment): no effect on plaque formation (infectivity) | pfu/ml (Coxsackievirus B-5 [12]; .02 mg/ml, pretreatment 15 minutes (control 1,000,000)): 1,800,000 pfu/ml | Presence of CPE [13]: - and + | protection of HeLa cells against RSV infection (conclusion) [13]: confers partial protection on HeLa cells against RSV infection | pfu/ml (HSV-II; infection 0 hours after exposure (control 270,000)): 53,000 pfu/ml | pfu/ml (HSV-II; infection 2 hours after exposure (control 30,000)): 14,000 pfu/ml | pfu/ml (HSV-II; infection 24 hours after exposure (control 69,000)): 69,000 pfu/ml | pfu/ml (HSV-II; infection 72 hours after exposure (control 69,000)): 58,000 pfu/ml | duration of anti-herpes effect of pretreatment (conclusion) (HSV-II; one hour pretreatment): transitory | inhibition at 20 µg/mL (HSV-II; infection 0 hours after exposure): 81% | inhibition at 20 µg/mL (HSV-II; infection 2 hours after exposure): 54% | inhibition at 20 µg/mL (HSV-II; infection 24 hours after exposure): 0% | inhibition at 20 µg/mL (HSV-II; infection 72 hours after exposure): 16% | plaque forming units (herpes virus; 0.4% in phosphate buffered saline (control 41,250; control smear 13,500)): 0 plaque forming units | recovery of viruses (conclusion) (herpes virus; smears scrubbed off with 0.4% solution): no viruses were recovered | effect of serum on cytotoxicity (conclusion) [14]: presence of serum reduced the cytotoxicity | relative sensitivity of cell lines (conclusion) [14]: MA-104 cells were less sensitive to docusate sodium than were HeLa and foreskin fibroblast cells | solubility in alcohol ([15]; alcohol): freely soluble in alcohol | solubility in water ([15]; water): slowly soluble in water | Presence of CPE (Influenza A virus [16]; experiment 1, virus dilution 10^-1 (control +)): - | Presence of CPE (Influenza A virus [16]; experiment 1, virus dilution 10^-2 (control +)): - | Presence of CPE (Influenza A virus [16]; experiment 1, virus dilution 10^-3 (control -)): - | Presence of CPE (Influenza A virus [16]; experiment 1, virus dilution 10^-4 (control -)): - | Presence of CPE (Influenza A virus [16]; experiment 2, virus dilution 10^-2 (control +)): - | Presence of CPE (Influenza A virus [16]; experiment 2, virus dilution 10^-3 (control -)): - | Presence of CPE (Influenza A virus [16]; experiment 2, virus dilution 10^-4 (control -)): -
